Experiments:
H460 tumors = assay: H3-P staining in H460 tumors after gemcitabine; format: in vivo, rodent
Protocol: Chem. 271:13197-201. 1996; Goto et al., J Biol Chem. 274:25543-9, 1999). The assay protocol was as follows. Tumors from rodents treated or untreated with Chk1 activator (in the present study, chemotherapy agent) and/or Chk1 inhibitor, were excised and paraffin embedded. The tumors are cut into 6 micron thick slices and mounted on glass slides. […] The slides are then heated to 95° C. in 10 mM sodium citrate for 10 minutes followed by a 20 minute cooling step. The slides are blocked for 30 minutes with Block buffer (20% normal human serum and 2% bovine serum albumin in phosphate buffered saline containing 0.05% Triton X-100 (PBST)). The anti-phospho histone H3 antibody (Upstate Biotech, Cat. #06-570) is diluted 1:200 in the Block buffer and incubated with the slides for one hour. The slides are washed 3 times 5 minutes in PBST. The secondary antibody, donkey anti-rabbit rhodamine (Jackson, cat #711-295-152) was added for 30 minutes. The slides were then washed twice in PBST and […] of […] DAPI (Sigma) in PBS is added and allowed to stain for 30 minutes. The slides were then washed two more times in PBST and mounted with Vectashield (Vector, cat # H-1400). Slides were viewed using fluorescence microscopy. The percentage of cells stained with H3-P antibody relative to total (DAPI stained) cells were quantified using Metamorph software (Universal Imaging Corporation, Version 4.6). […]

H460 tumor cells = assay: H460 non-small cell lung tumor xenograft model, tumor volume (Example 1); format: in vivo, mice; conditions: gemcitabine alone, 160 mg/kg q3d×3
Text: A method of the invention provided an improved antiproliferative effect over co-administration in an art-recognized […] tumor model. In the experiment, gemcitabine was used as the Chk1 activator and a diaryl urea compound according to Keegan et al., PCT/US02/06452, was used as the selective Chk1 inhibitor. (The same Chk1 inhibitor was used in the examples 2-11.) The target phase of gemcitabine is the S phase of the cell cycle. A non-small cell lung tumor xenograft tumor model, H460, was the art-recognized […] tumor model.
Nude mice were engrafted with H460 tumor cells and allowed to grow to an average of 75 mm3. Tumor-bearing mice were then treated with vehicle, gemcitabine or gemcitabine plus 400 mg/kg selective Chk1 inhibitor. The gemcitabine was administered at a dose of 160 mg/kg q3d×3 either simultaneously with the Chk1 inhibitor (co-administration) or, according to the invention, 18 hours prior to the Chk1 inhibitor to allow for S phase synchronization.
Tumors were measured every 2-3 days. On day 10, the median tumor volume for the vehicle group was 10 times the starting volume, while the gemcitabine alone group was four times the starting volume. The tumor volume for the gemcitabine plus Chk1 inhibitor co-administration group was also four times the starting volume. […]

HT29 tumors = assay: Rb-Pser795 S phase marker staining of HT29 tumors; format: in vivo, mice; conditions: 100 mg/kg gemcitabine i.p., 1 to 72 hr
Text: To confirm that low H3-P staining corresponds to S phase arrest, tumors were also stained with an S phase marker, phosphorylated Rb-Pser795. Tumor slices taken in the experiment above were stained with the Rb-Pser795 antibody (Cell Signaling Cat# 9301S) and the number of positive staining cells quantified.

tumor cells = assay: Cell-based proliferation (sensitization) assay (Example 2); conditions: ratio of GI90 of the chemotherapy agent in absence to that in presence of Chk1 inhibitor
Protocol: Chk1 inhibitors were tested in a cell-based proliferation assay for the ability to sensitize tumor cells to ionizing radiation or chemotherapy agents. Chk1 inhibitors were tested in combination with 5-FU, gemicitabine, ionizing radiation, camptothecin, etoposide, hydroxyurea, cisplatin, fludarabine, Ara-C and aphidicolin. For each experiment, a serial dilution of each compound in combination with a ten-point dilution of each chemotherapy agent was included, in order to determine the concentration of chemotherapeutic required to inhibit the growth of 90% (GI90) of the cells in the presence and absence of the Chk1 inhibitor. This ratio of GI90 in the absence of Chk1 inhibitor to that in the presence of Chk1 inhibitor is called the “fold sensitization.” Fold sensitization was plotted as a function of Chk1 inhibitor concentration and the amount of drug required to yield two-fold sensitization was calculated. […] Another parameter analyzed was the fold sensitization achieved at the LD50 (the dose of compound alone that inhibits growth of 50% of cells) for the compound. These two values allow direct ranking of both the potency and toxicity of Chk1 inhibitors with respect to one another.

Nc1ccn([C@@H]2O[C@H](CO)[C@@H](O)C2(F)F)c(=O)n1 [gemcitabine]
time at which cells exited S phase arrest (H460 tumors; H460 cells, after gemcitabine): 48 h | time of lowest H3-P staining (H460 tumors; H460 tumors treated with gemcitabine): 12 h | median tumor volume on day 10 (H460 tumor cells): four | Rb-P staining cells (HT29 tumors): more Rb-P staining cells at, 24, 48 and 72 hours than at earlier timepoints | Fold Sensitization to Agent by Chk1 Inhibitor (tumor cells): 12 fold

Source: patent US20070185013A1, “Use of chk1 inhibitors to control cell proliferation” (ICOS CORPORATION, priority 2003, published 2007)
